2 compounds from paper PMC3522794 (Nature chemical biology, 2012) can be followed below.

The target in assay [1] is HCK^Y527F (Homo sapiens, UniProt P08631, Y522F). Kind of assay: Pull-down assay to determine SH3 domain accessibility. It is filed as binding. The conditions noted are these: inhibitor 5 µM (saturating), kinase 100 nM; mean ± SEM, n=3.
Assay [2] addresses SNAP-tag-polyproline (PP) peptide fusion (…). Kind of assay: pull-down.

In the case of `Cc1nc(Nc2ncc(C(=O)Nc3c(C)cccc3Cl)s2)cc(N2CCN(CCO)CC2)n1` [Dasatinib, dasatinib], the “Percent kinase eluted (retained on PP ligand beads), HCK^Y527F” value in assay [1] amounted to 27%.
In assay [2], “HCK^Y527F (HCK residues 84–531, Y527F, SRC residue numbering) (enzyme)” gave a percent of loaded kinase retained on the beads of 27%.
